The source of these data is US6440964B1, “Compositions and methods for treating ophthalmic and otic infections” (priority 1998, dated 2002).

For one test, the system named is Microbacterium otitidis. Description: In vitro activity (MIC) by agar and broth dilution methods against clinical isolates. The format is cell-based. As to conditions: for MIC: read-out: minimum inhibitory concentration (MIC). On the procedure:
(§1) The activity levels were determined as MIC (minimum inhibitory concentration) values. In order to compare the activity of the compounds of the present invention to other antibiotics, MIC values for representatives quinolones, aminoglycosides, β-lactams and other types of antibiotics were also determined. […] The MCC numbers (e.g., “MCC 10647”) represent separate clinical isolates of the two Microbacterium species tested.
Background: Dilution methods test growth across graded concentrations, often in twofold steps.

A further test concerns Microbacterium alconae. The description is as above. The format is cell-based. Particulars: for MIC: read-out: minimum inhibitory concentration (MIC). On the procedure: as §1
In the next test the test system is M. alconae. The test is described as follows: MIC90 of Moxifloxacin for bacteria associated with ophthalmic, otic and nasal infections. The format is cell-based, Microbacterium alconae. The source says:
(§2) The concentrations of the antibiotics of formula (I) in the compositions of the present invention will vary depending on the intended use of the compositions (e.g., treatment of existing infections or prevention of post-surgical infections), and the relative antimicrobial activity of the specific antibiotic selected. The antimicrobial activity of antibiotics is generally expressed as the minimum concentration required to inhibit the growth of a specified pathogen. This concentration is also referred to as the “minimum inhibitory concentration” or “MIC”. The term “MIC90” refers to the minimum concentration of antibiotic required to inhibit the growth of ninety percent (90%) of the strains of a species. The concentration of an antibiotic required to totally kill a specified bacteria is referred to as the “minimum bactericidal concentration” or “MBC”.

For the next test, the system named is M. otitidis. The test is described as above. The format is cell-based, Microbacterium otitidis.
From the text: as §2

Test [1] concerns S. epidermidis/methicillin sensitive. The description is as above. The format is cell-based.
From the text: as §2

Test [2] has as its system S. epidermidis/methicillin resistant. Described as above. The format is cell-based.
From the text: as §2

The subject of test [3] is S. aureus/methicillin sensitive. Described as above. The format is cell-based.
From the text: as §2

In test [4] the test system is S. aureus/quinolone resistant. The description is as above. The format is cell-based.
From the text: as §2

Test [5] concerns S. pneumoniae/penicillin resistant. The test is described as above. The format is cell-based.
From the text: as §2

Test [6] deals with S. aureus/methicillin resistant. The test is described as above. The format is cell-based.
From the text: as §2

Test [7] relates to H influenzae/βlactamase negative. The test is described as above. The format is cell-based.
From the text: as §2

The test system of test [8] is H. influenzae/β-lactamase positive. Described as above. The format is cell-based.
From the text: as §2

The subject of test [9] is S. pneumoniae/penicillin sensitive. The test is described as above. The format is cell-based.
From the text: as §2

For a further test, the system named is P. aeruginosa. The test is described as above. The format is cell-based.
From the text: as §2

Converted amounts (≈) assume the structure as drawn. Where two headings read alike, the source gives them in different places.

Regarding `CC[C@H]1OC(=O)[C@H](C)[C@@H](O[C@H]2C[C@@](C)(OC)[C@@H](O)[C@H](C)O2)[C@H](C)[C@@H](O[C@@H]2O[C@H](C)C[C@H](N(C)C)[C@H]2O)[C@](C)(O)C[C@@H](C)C(=O)[C@H](C)[C@@H](O)[C@]1(C)O` [Erythromycin], the MIC in the test with Microbacterium otitidis (clinical isolate MCC 10647) worked out at 0.03 µg/mL (≈ 0.0409 µM); in the test with Microbacterium otitidis (clinical isolate MCC 10810), 0.03 µg/mL (≈ 0.0409 µM); in the test with Microbacterium otitidis (clinical isolate MCC 10990), 0.03 µg/mL (≈ 0.0409 µM); in the test with Microbacterium otitidis (clinical isolate MCC 11495), 0.03 µg/mL (≈ 0.0409 µM); with Microbacterium otitidis (clinical isolate MCC 11676), 0.03 µg/mL (≈ 0.0409 µM); with Microbacterium alconae (clinical isolate MCC 11316), 1 µg/mL (≈ 1.36 µM). The MIC in the test on Microbacterium alconae (clinical isolate MCC 11558) came to 2 µg/mL (≈ 2.73 µM); with Microbacterium alconae (clinical isolate MCC 11639), 2 µg/mL (≈ 2.73 µM); in the test with Microbacterium alconae (clinical isolate MCC 11653), 0.5 µg/mL (≈ 0.681 µM); in the test with Microbacterium alconae (clinical isolate MCC 11699), 0.5 µg/mL (≈ 0.681 µM).

As for Polymyxin B, the “minimum inhibitory concentration (MIC)” value is on record as 1040 micrograms per milliliter in the test with Microbacterium otitidis (clinical isolate MCC 10647); 260 micrograms per milliliter in the test with Microbacterium otitidis (clinical isolate MCC 10810); 260 micrograms per milliliter in the test on Microbacterium otitidis (clinical isolate MCC 10990); 1040 micrograms per milliliter in the test with Microbacterium otitidis (clinical isolate MCC 11495); 16 micrograms per milliliter in the test with Microbacterium otitidis (clinical isolate MCC 11676); 32.5 micrograms per milliliter with Microbacterium alconae (clinical isolate MCC 11316). Further, the “minimum inhibitory concentration (MIC)” value in the test on Microbacterium alconae (clinical isolate MCC 11558) is 32.5 micrograms per milliliter; in the test on Microbacterium alconae (clinical isolate MCC 11639), 16 micrograms per milliliter; with Microbacterium alconae (clinical isolate MCC 11653), 16 micrograms per milliliter; in the test with Microbacterium alconae (clinical isolate MCC 11699), 16 micrograms per milliliter.

On to `CC1COc2c(N3CCN(C)CC3)c(F)cc3c(=O)c(C(=O)O)cn1c23` (stereo not shown) [Ofloxacin], for which the MIC in the test with Microbacterium otitidis (clinical isolate MCC 10647) was found to be 16 µg/mL (≈ 44.3 µM); in the test on Microbacterium otitidis (clinical isolate MCC 10810), 32 µg/mL (≈ 88.6 µM); with Microbacterium otitidis (clinical isolate MCC 10990) it was 8 µg/mL (≈ 22.1 µM); with Microbacterium otitidis (clinical isolate MCC 11495), 16 µg/mL (≈ 44.3 µM); in the test with Microbacterium otitidis (clinical isolate MCC 11676), 8 µg/mL (≈ 22.1 µM); with Microbacterium alconae (clinical isolate MCC 11316) it was 4 µg/mL (≈ 11.1 µM). For the same compound, the MIC in the test with Microbacterium alconae (clinical isolate MCC 11558), in the test with Microbacterium alconae (clinical isolate MCC 11639), in the test with Microbacterium alconae (clinical isolate MCC 11653) and in the test with Microbacterium alconae (clinical isolate MCC 11699) was 4 µg/mL (≈ 11.1 µM) in each case.

Turning to Neomycin, the “minimum inhibitory concentration (MIC)” value with Microbacterium otitidis (clinical isolate MCC 10647) is 8.0 micrograms per milliliter; in the test on Microbacterium otitidis (clinical isolate MCC 10810), 2.0 micrograms per milliliter; in the test with Microbacterium otitidis (clinical isolate MCC 10990) it was 2.0 micrograms per milliliter; in the test on Microbacterium otitidis (clinical isolate MCC 11495), 8.0 micrograms per milliliter; in the test with Microbacterium otitidis (clinical isolate MCC 11676), 2.0 micrograms per milliliter; in the test with Microbacterium alconae (clinical isolate MCC 11316), 1.0 micrograms per milliliter. In addition, the “minimum inhibitory concentration (MIC)” value with Microbacterium alconae (clinical isolate MCC 11558), with Microbacterium alconae (clinical isolate MCC 11639), in the test with Microbacterium alconae (clinical isolate MCC 11653) and in the test with Microbacterium alconae (clinical isolate MCC 11699) was 1.0 micrograms per milliliter each time.

As to Gentamicin, the “minimum inhibitory concentration (MIC)” value came to 8.0 micrograms per milliliter with Microbacterium otitidis (clinical isolate MCC 10647); 4.0 micrograms per milliliter in the test with Microbacterium otitidis (clinical isolate MCC 10810); 4.0 micrograms per milliliter in the test with Microbacterium otitidis (clinical isolate MCC 10990); 16 micrograms per milliliter in the test on Microbacterium otitidis (clinical isolate MCC 11495); 4.0 micrograms per milliliter in the test on Microbacterium otitidis (clinical isolate MCC 11676); 2.0 micrograms per milliliter in the test on Microbacterium alconae (clinical isolate MCC 11316). Further, the “minimum inhibitory concentration (MIC)” value with Microbacterium alconae (clinical isolate MCC 11558), with Microbacterium alconae (clinical isolate MCC 11639), in the test on Microbacterium alconae (clinical isolate MCC 11653) and in the test with Microbacterium alconae (clinical isolate MCC 11699) was 2.0 micrograms per milliliter in each case.

With `NC[C@H]1O[C@H](O[C@H]2[C@H](O)[C@@H](O[C@H]3O[C@H](CO)[C@@H](O)[C@H](N)[C@H]3O)[C@H](N)C[C@@H]2N)[C@H](N)C[C@@H]1O` [Tobramycin], the MIC amounted to 32 µg/mL (≈ 68.4 µM) in the test on Microbacterium otitidis (clinical isolate MCC 10647); 4 µg/mL (≈ 8.56 µM) in the test on Microbacterium otitidis (clinical isolate MCC 10810); 4 µg/mL (≈ 8.56 µM) in the test on Microbacterium otitidis (clinical isolate MCC 10990); 4 µg/mL (≈ 8.56 µM) with Microbacterium otitidis (clinical isolate MCC 11495); 16 µg/mL (≈ 34.2 µM) in the test on Microbacterium otitidis (clinical isolate MCC 11676); 16 µg/mL (≈ 34.2 µM) with Microbacterium alconae (clinical isolate MCC 11316). For the same compound, the MIC in the test on Microbacterium alconae (clinical isolate MCC 11558), with Microbacterium alconae (clinical isolate MCC 11639), in the test on Microbacterium alconae (clinical isolate MCC 11653) and with Microbacterium alconae (clinical isolate MCC 11699) was 16 µg/mL (≈ 34.2 µM) each time.

As to `CN(C)[C@@H]1C(O)=C(C(N)=O)C(=O)[C@@]2(O)C(O)=C3C(=O)c4c(O)cccc4[C@@](C)(O)[C@H]3C[C@@H]12` [Tetracycline], the MIC in the test on Microbacterium otitidis (clinical isolate MCC 10647), with Microbacterium otitidis (clinical isolate MCC 10810), in the test with Microbacterium otitidis (clinical isolate MCC 10990), in the test with Microbacterium otitidis (clinical isolate MCC 11495), with Microbacterium otitidis (clinical isolate MCC 11676) and with Microbacterium alconae (clinical isolate MCC 11316) was 1 µg/mL (≈ 2.25 µM) each time. In addition, the MIC in the test with Microbacterium alconae (clinical isolate MCC 11558), in the test on Microbacterium alconae (clinical isolate MCC 11639), in the test on Microbacterium alconae (clinical isolate MCC 11653) and in the test on Microbacterium alconae (clinical isolate MCC 11699) was 1 µg/mL (≈ 2.25 µM) each time.

Moxifloxacin: the MIC90 against M. alconae was determined as 0.25 µg/mL; against M. otitidis, 2.0 µg/mL; in test [1], 0.25 µg/mL; in test [2] it was 4.0 µg/mL; in test [3], 0.13 µg/mL; in test [4], 4.0 µg/mL. For the same compound, the MIC90 in test [5] was 0.25 µg/mL; in [6] it was 4.0 µg/mL; in [7] it was 0.06 µg/mL; in test [8], 0.06 µg/mL; in [9], 0.25 µg/mL; in the test on P. aeruginosa it was 8.0 µg/mL.

On to `CCC[C@@H]1C[C@@H](C(=O)N[C@@H]([C@H]2O[C@H](SC)[C@H](O)[C@@H](O)[C@H]2O)[C@H](C)Cl)N(C)C1` [Clindamycin], for which the MIC in the test on Microbacterium otitidis (clinical isolate MCC 10647) amounted to 0.03 µg/mL (≈ 0.0706 µM); with Microbacterium otitidis (clinical isolate MCC 10810), 0.03 µg/mL (≈ 0.0706 µM); with Microbacterium otitidis (clinical isolate MCC 10990), 0.03 µg/mL (≈ 0.0706 µM); in the test on Microbacterium otitidis (clinical isolate MCC 11495), 0.03 µg/mL (≈ 0.0706 µM); in the test with Microbacterium otitidis (clinical isolate MCC 11676) it was 0.03 µg/mL (≈ 0.0706 µM); in the test on Microbacterium alconae (clinical isolate MCC 11316), 4 µg/mL (≈ 9.41 µM). Also, the MIC in the test on Microbacterium alconae (clinical isolate MCC 11558), in the test with Microbacterium alconae (clinical isolate MCC 11639), in the test with Microbacterium alconae (clinical isolate MCC 11653) and with Microbacterium alconae (clinical isolate MCC 11699) was 4 µg/mL (≈ 9.41 µM) each time.

In the case of `Cc1onc(-c2ccccc2)c1C(=O)N[C@@H]1C(=O)N2[C@@H]1SC(C)(C)[C@@H]2C(=O)O` [Oxacillin], the MIC in the test with Microbacterium otitidis (clinical isolate MCC 10647) turned out to be 2 µg/mL (≈ 4.98 µM); in the test with Microbacterium otitidis (clinical isolate MCC 10810), 4 µg/mL (≈ 9.96 µM); with Microbacterium otitidis (clinical isolate MCC 10990), 2 µg/mL (≈ 4.98 µM); with Microbacterium otitidis (clinical isolate MCC 11495), 4 µg/mL (≈ 9.96 µM); in the test on Microbacterium otitidis (clinical isolate MCC 11676), 2 µg/mL (≈ 4.98 µM); in the test with Microbacterium alconae (clinical isolate MCC 11316), 8 µg/mL (≈ 19.9 µM). For the same compound, the MIC with Microbacterium alconae (clinical isolate MCC 11558) is 16 µg/mL (≈ 39.9 µM); in the test with Microbacterium alconae (clinical isolate MCC 11639) it was 32 µg/mL (≈ 79.7 µM); in the test with Microbacterium alconae (clinical isolate MCC 11653) it was 32 µg/mL (≈ 79.7 µM); in the test on Microbacterium alconae (clinical isolate MCC 11699), 32 µg/mL (≈ 79.7 µM).

As to `O=C(N[C@H](CO)[C@H](O)c1ccc([N+](=O)[O-])cc1)C(Cl)Cl` [Chloramphenicol], the MIC in the test on Microbacterium otitidis (clinical isolate MCC 10647) stood at 1 µg/mL (≈ 3.09 µM); with Microbacterium otitidis (clinical isolate MCC 10810) it was 1 µg/mL (≈ 3.09 µM); in the test with Microbacterium otitidis (clinical isolate MCC 10990) it was 1 µg/mL (≈ 3.09 µM); in the test on Microbacterium otitidis (clinical isolate MCC 11495) it was 1 µg/mL (≈ 3.09 µM); in the test on Microbacterium otitidis (clinical isolate MCC 11676), 1 µg/mL (≈ 3.09 µM); with Microbacterium alconae (clinical isolate MCC 11316) it was 16 µg/mL (≈ 49.5 µM). For the same compound, the MIC in the test on Microbacterium alconae (clinical isolate MCC 11558), in the test with Microbacterium alconae (clinical isolate MCC 11639), with Microbacterium alconae (clinical isolate MCC 11653) and in the test on Microbacterium alconae (clinical isolate MCC 11699) was 16 µg/mL (≈ 49.5 µM) each time.
